# Results published in US20230034584A1, “INHIBITORS OF SHP2” (Bayer Aktiengesellschaft, priority 2019, published 2023).
# Where two headings read alike, the source gives them in different places.
# Legend:
# [1] = test system: MRL/lpr mice; details: MRL/lpr mice treated with the SHP2 inhibitor; cited from earlier work
# [2] = test system: 20 other PTPs; details: literature value; cited from earlier work
# [3] = log D; type: physicochemical
# [4] = test system: C57/Bl6J mice with UUO; assay: UUO mouse model, macrophage infiltration by flow cytometry (CD45, F4/80); type: in vivo; details: 1 and 10 mg/kg once daily p.o.
# Method: Experiments indicative for chronic kidney diseases were carried out in unilateral ureteral obstruction (UUO) mouse models (examples 1). Such treatment results in the short version of the UUO model (3 days) in pronounced macrophage infiltration into the affected kidney, which is one of the triggers for the subsequent interstitial fibrosis and nephron damage. Collagen expression is increased in UUO after 10 days as a result of renal fibrosis, while alpha-smooth muscle actin (ASMA) expression is increased as a result of reduced renal function, or fibroblast expansion (see Chevalier et al, 2009).
# (§1) The study was performed on male C57/Bl6J mice (age: 7-8 weeks) that were obtained from Charles River. Mice were anesthetized with continuous inhaled isoflurane, and the left ureter was exposed via a mid-abdominal incision. The mid-ureter was obstructed by two point ligation with silk sutures. The SHAM-operated mouse (n=6) underwent the same procedure except for the obstruction of the left ureter. […] As a placebo, a solution without active ingredient was used (group 2), and a sham operated group with unligated kidney was used as a […] (group 1)
# The infiltration of macrophages in response to the renal injury was measured in a flow cytometry assay with detection antibodies binding to the pan-leukocyte marker CD45, as well as to the macrophage-specific antigen. F4/80.
# [5] = test system: ERK1/2 Thr202/Tyr204-phosphorylation in human renal proximal tubular epithelial cells (RPTEC); assay: Phospho-ERK cellular assay (HTRF); type: cell-based; details: read-out: IC50, inhibition of ERK phosphorylation
# Method: Cellular pERK assay was used to determine compound activity on modulating ERK1/2 Thr202/Tyr204-phosphorylation in renal cells. […] The intracellular levels of ERK1/2 phosphorylated at Thr202/Tyr204 were quantified with Advanced Phospho-ERK HTRF assay (Cisbio, Cat. #64AERPEH). Compound incubation was terminated by addition of 16 μL lysis buffer (Cisbio) and 4 μL pERK HTRF® antibody cocktail (Cisbio).
# [6] = test system: pERK levels in the injured kidneys; assay: Phospho-ERK quantification in kidney lysates (HTRF), UUO mice; type: in vivo, mouse; details: 1 and 10 mg/kg once daily p.o.
# Method: Kidney tissue from animal studies was homogenized in supplemented HTRF lysis buffer (Cisbio). The volume of lysis buffer is adjusted at 1 mL per 100 mg tissue. Homogenization was performed with […] steel beads in Mixer Mill (Retsch, MM300) for 2.5 min/25 Hz, followed by sample cooling on ice. The protein concentration in tissue lysates was adjusted to 0.1-0.5 mg/mL and HTRF pERK assay performed as described above.
# as §1
# [7] = test system: C57/Bl6J mice with UUO; assay: Unilateral ureteral obstruction (UUO) mouse model, 10 days, fibrosis markers; type: in vivo; details: for αSMA-positive area within the obstructed kidney / Collagen content (Sirius Red/Fast Green staining) of obstructed kidney: ten days, histology
# Method: Experiments indicative for chronic kidney diseases were carried out in unilateral ureteral obstruction (UUO) mouse models (examples 1). Such treatment results in the short version of the UUO model (3 days) in pronounced macrophage infiltration into the affected kidney, which is one of the triggers for the subsequent interstitial fibrosis and nephron damage. Collagen expression is increased in UUO after 10 days as a result of renal fibrosis, while alpha-smooth muscle actin (ASMA) expression is increased as a result of reduced renal function, or fibroblast expansion (see Chevalier et al, 2009). The study was performed on male C57/Bl6J mice (age: 7-8 weeks) that were obtained from Charles River. Mice were anesthetized with continuous inhaled isoflurane, and the left ureter was exposed via a mid-abdominal incision. The mid-ureter was obstructed by two point ligation with silk sutures. The SHAM-operated mouse (n=6) underwent the same procedure except for the obstruction of the left ureter. The mice were randomized into four groups (n=10 each group): UUO plus vehicle (10% EtOH/40% PEG/50% water), UUO plus 3 [mg/kg] SHP099, UUO plus 30 [mg/kg] SHP099. Mice were dosed bidaily with vehicle and SHP099. The forth group of mice with UUO was treated once daily with Tivozanib (technical control). At ten days after surgery, mice were euthanized, and kidneys were collected and divided in two parts. One part was snap-frozen in liquid nitrogen for RNA analysis. The other part was stored in Davidson's fixative for the preparation of histological sections. Total RNA was isolated from parts of harvested kidneys. Kidney tissue was homogenized and RNA was obtained and transcribed to cDNA. Using TaqMan real time PCR renal mRNA expression of fibrotic markers was analyzed in kidney tissues. For the assessment of fibrosis on the protein level paraffin tissue sections were stained with alpha-smooth muscle actin (αSMA) and Sirius Red/Fast Green Collagen Stainings using standard procedures. Quantitative measurements of alpha-smooth muscle actin (αSMA)-positive as well as Sirius Red (Collagen) positive areas within the kidneys were obtained by computer image analysis using the Axio Scan Z1 (Zeiss) microscope and the Zen software. All data are expressed as means±S.D. Differences between groups were analyzed by one-way ANOVA with Dunnett's corrections for multiple comparisons. Statistical significance was defined as p<0.05.
# [8] = 3 and 30 mg/kg bidaily, ten days after surgery, TaqMan PCR
# [9] = human proximal tubular epithelial cells (immortalized RPTEC), pERK HTRF
smiles,measurement,setting,value
Cn1c(-c2cccc(NC(=O)C(=O)Nc3ccc(-c4ccsc4)cc3)c2)c(I)c2cc(C(=O)O)c(O)cc21 [11a-1],progression of kidney disease in SLE-prone mice,[1],prevented the progression of kidney disease
same,selectivity against any of 20 other PTPs,[2],> 5 fold
"Cc1nc(N2CCC3(CC2)CO[C@@H](C)[C@H]3N)c(CO)nc1-c1cccc(Cl)c1Cl [RMC-4550, [3-[(3S,4S)-4-amino-3-methyl-2-oxa-8-azaspiro[4.5]decan-8-yl]-6-(2,3-dichlorophenyl)-5-methylpyrazin-2-yl}methanol]",logD,[3],2.2
same,macrophage infiltration into the kidney,[4],"significant, dose-dependent reduction"
same,IC50,"[5]; Homo sapiens, RPTEC",12.6 nM
same,pERK levels in the injured kidneys,[6],dose-dependently reduced
CC1(N)CCN(c2cnc(-c3cccc(Cl)c3Cl)c(N)n2)CC1 [SHP099],αSMA-positive area within the obstructed kidney,[7]; 3 mg/kg bidaily,significant reduction
same,collagen RNA expression in kidney,[7]; [8],dose-dependent reduction
same,αSMA RNA expression in kidney,[7]; [8],dose-dependent reduction
same,Collagen content (Sirius Red/Fast Green staining) of obstructed kidney,[7]; both dosages (3 and 30 mg/kg bidaily),dose dependently and significantly reduced
same,IC50,[5]; [9],306 nM
"C[C@@H]1OCC2(CCN(c3cnc(Sc4ccnc(N)c4Cl)c(N)n3)CC2)[C@@H]1N [TNO-155, (3S,4S)-8-(6-amino-5-((2-amino-3-chloropyridin-4-yl)thio)pyrazin-2-yl)-3-methyl-2-oxa-8-azaspiro[4.5]decan-4-amine]",IC50,[5]; [9],46.4 nM
COc1cc2nccc(Oc3ccc(NC(=O)Nc4cc(C)on4)c(Cl)c3)c2cc1OC [Tivozanib],Collagen content (Sirius Red/Fast Green staining) of obstructed kidney,[7]; once daily (technical control),significantly reduced
same,αSMA-positive area within the obstructed kidney,[7]; once daily (technical control),significantly reduced
